Values quoted from earlier work, collected in patent publication US10195165B2, “Methods of treating Prader-Willi syndrome” (Ovid Therapeutics Inc., priority 2015, dated 2019).

What was measured:
[1] = test system: subjects with mild to moderate anxiety weaned from benzodiazepine
C57B16 mice [2] = settings: 3 and 5 mg/kg intraperitoneal once daily for 7 days
C57B16 mice [3] = settings: 3 mg/kg dose, intraperitoneal; one-tailed t-test
[4] = test system: brain-derived neurotrophic factor (BDNF)
C57B16 mice [5] = settings: 3 and 5 mg/kg intraperitoneal once daily for 7 days; remark: listed apart in the source
C57B16 mice [6] = settings: 3 and 5 mg/kg intraperitoneal once daily for 7 days; remark: listed apart in the source
Sigma 2 receptor = molecular target: T1, Sigma 2 receptor (Homo sapiens, UniProt Q5BJF2); settings: 1 μM captodiamine competing with a reference ligand
T1 construct: Novascreen
T1 sequence (Q5BJF2 whole entry, species assumed): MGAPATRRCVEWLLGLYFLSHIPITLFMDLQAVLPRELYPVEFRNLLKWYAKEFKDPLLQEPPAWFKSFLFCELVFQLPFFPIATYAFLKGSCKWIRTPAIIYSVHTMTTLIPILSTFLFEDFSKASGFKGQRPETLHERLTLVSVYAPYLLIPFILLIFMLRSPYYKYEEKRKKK

5-HT2C = molecular target: T2, 5-HT2C (Homo sapiens, UniProt P28335)
T2 sequence (P28335 33-458): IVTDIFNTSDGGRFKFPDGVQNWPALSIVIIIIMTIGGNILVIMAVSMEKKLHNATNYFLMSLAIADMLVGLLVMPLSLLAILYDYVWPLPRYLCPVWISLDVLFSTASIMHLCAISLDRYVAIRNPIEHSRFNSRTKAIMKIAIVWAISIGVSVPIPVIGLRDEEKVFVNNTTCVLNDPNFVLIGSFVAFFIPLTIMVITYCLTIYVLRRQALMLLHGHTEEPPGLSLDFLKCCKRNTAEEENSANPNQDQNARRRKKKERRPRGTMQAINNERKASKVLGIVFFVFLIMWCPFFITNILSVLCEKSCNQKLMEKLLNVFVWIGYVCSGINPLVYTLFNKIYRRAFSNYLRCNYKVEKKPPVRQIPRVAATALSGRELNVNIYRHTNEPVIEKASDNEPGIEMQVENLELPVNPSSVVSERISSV

Sigma 1 receptor [7] = molecular target: T3, Sigma 1 receptor (Homo sapiens, UniProt Q99720); parameters: Novascreen; settings: 1 μM captodiamine competing with a reference ligand
T3 sequence (Q99720 whole entry, species assumed): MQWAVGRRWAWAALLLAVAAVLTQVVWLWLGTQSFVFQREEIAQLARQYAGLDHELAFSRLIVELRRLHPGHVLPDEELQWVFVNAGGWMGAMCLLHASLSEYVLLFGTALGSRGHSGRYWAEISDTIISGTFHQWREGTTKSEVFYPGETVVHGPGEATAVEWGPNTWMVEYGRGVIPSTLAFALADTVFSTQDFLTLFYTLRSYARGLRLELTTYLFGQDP

serotonin 5HT2c receptor = molecular target: T4, serotonin 5HT2c receptor (Homo sapiens, UniProt P28335); settings: 1 μM captodiamine competing with a reference ligand
T4 construct: Novascreen
T4 sequence (P28335 33-458): T2 sequence (P28335 33-458)

C57B16 mice [8] = settings: 3 and 5 mg/kg intraperitoneal once daily for 7 days; remark: listed apart in the source
[9] = test system: Brain Derived Neurotrophic Factor (BDNF)
Sigma 1 receptor [10] = molecular target: T3, Sigma 1 receptor
C57B16 mice [11] = settings: 3 and 5 mg/kg intraperitoneal once daily for 7 days; remark: listed apart in the source
[12] = test system: Glial Derived Neurotrophic Factor (GDNF)
[13] = test system: car driving ability of individuals; settings: compared to lorazepam
dopamine D3 [14] = molecular target: T5, dopamine D3 (Homo sapiens, UniProt P35462)
Target sequence in this assay (P35462 whole entry): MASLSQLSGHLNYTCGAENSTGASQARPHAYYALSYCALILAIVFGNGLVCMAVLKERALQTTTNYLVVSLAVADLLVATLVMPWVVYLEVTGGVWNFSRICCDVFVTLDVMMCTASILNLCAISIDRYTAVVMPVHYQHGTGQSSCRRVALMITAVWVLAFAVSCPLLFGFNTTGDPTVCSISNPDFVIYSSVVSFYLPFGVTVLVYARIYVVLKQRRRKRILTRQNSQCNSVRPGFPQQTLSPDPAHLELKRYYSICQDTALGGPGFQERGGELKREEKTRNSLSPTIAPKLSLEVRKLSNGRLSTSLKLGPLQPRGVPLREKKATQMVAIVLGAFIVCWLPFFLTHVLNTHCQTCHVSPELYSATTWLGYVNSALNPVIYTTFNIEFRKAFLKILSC

dopamine D3 [15] = molecular target: T5, dopamine D3; parameters: Novascreen; settings: 1 μM captodiamine competing with a reference ligand
Target sequence in this assay (P35462 whole entry, species assumed): as the sequence (P35462 whole entry) above

CCCCSc1ccc(C(SCCN(C)C)c2ccccc2)cc1 (stereo not drawn) [captodiamine, 2-[(4-butylsulfanylphenyl)-phenylmethyl]sulfanyl-N,N-dimethylethanamine]
Tyrer Benzodiazepine Withdrawal Symptom Questionnaire (BWSQ) score ([1]; 150 mg/d for 45 days versus placebo, primary outcome): statistically significant difference (p<0.0001; ANCOVA with repeated measures) between the two study groups in favor of captodiamine | drowsiness score ([1]; 150 mg/d versus placebo): declined from D0 | self-reported anxiety scores ([1]; 150 mg/d versus placebo, weaning and assessment phases): anxiety scores evolved little during the weaning phase and then fell during the assessment phase | re-emergence of anxiety or withdrawal symptoms after stopping captodiamine ([1]; after treatment stopped at 45 days): no re-emergence of anxiety or evidence for withdrawal symptoms | severity of benzodiazepine withdrawal symptoms ([1]; compared to placebo, background summary): lower severity of benzodiazepine withdrawal symptoms | basal locomotion in the open-field paradigm (C57B16 mice [2]): no influence on basal locomotion | time in the center of the arena (open-field) (C57B16 mice [2]): significantly more time in the center | time investigating objects during the training phase, Novel Object Recognition Task (C57B16 mice [3]): significantly longer investigating objects during the training phase | BDNF protein levels, hypothalamus [4]: increase brain-derived neurotrophic factor (BDNF) protein levels in the hypothalamus | pre-pulse inhibition paradigm (C57B16 mice [5]): no effect on the pre-pulse inhibition paradigm | water maze spatial learning task (C57B16 mice [6]): significant pro-cognitive action | percent target inhibition, Sigma 2 receptor (Sigma 2 receptor): greater than 20% | activity at 5-HT2C (5-HT2C): 5-HT2C antagonist | percent target inhibition, Sigma 1 receptor (Sigma 1 receptor [7]): greater than 90% | percent target inhibition, serotonin 5HT2c receptor (serotonin 5HT2c receptor): greater than 80% | time to immobility in the forced swim test (C57B16 mice [8]): significant increase on time to immobility | BDNF expression levels and/or activity, hippocampus ([9]; hippocampus): no effect | levels of expression of BDNF, hypothalamus ([9]; hypothalamus): significantly increased | BDNF expression levels and/or activity, prefrontal cortex ([9]; prefrontal cortex): no effect | activity at sigma-1 receptor (Sigma 1 receptor [10]): sigma-1 receptor agonist | exploring the open arms of the elevated X-maze (C57B16 mice [11]): significantly longer periods exploring the open arms | levels of expression of GDNF, hypothalamus ([12]; hypothalamus): not in either the hippocampus or the hypothalamus | levels of expression of GDNF, prefrontal cortex ([12]; prefrontal cortex): significantly decreased | concentration and dexterity when driving [13]: improved the concentration and dexterity | tendency to drowsiness when driving [13]: without inducing a tendency to drowsiness | activity at dopamine D3 (dopamine D3 [14]): dopamine D3 agonist | percent target inhibition, dopamine D3 receptor (dopamine D3 [15]): greater than 80%
